Measurements as given in US6630157B1, “Therapeutic and dietary compositions containing essential fatty acids and bioactive disulphides” (Viatris GmbH & Co. KG., priority 1997, dated 2003).
Entries after “also recorded” stand apart in the source; their conditions may differ.

Columns and labels:
[1] = tested on: perineal branch of the sciatic nerve of rats made diabetic by streptozotocin; assay: motor nerve conduction velocity in streptozotocin diabetic rats; format: in vivo, rat; details: STZ diabetic Sprague Dawley rats; GLA approx. 20 mg/kg/daily in food, TA 20 mg/kg/day intraperitoneal; 2 weeks treatment starting 6 weeks after STZ
Description: (§1) Initial experimental evidence was obtained by studying rats made diabetic by the administration of streptozotocin. In such animal, complications resembling human complications of diabetes develop, and are characterised by reduction in conduction velocity to of impulses along the sciatic nerve and reduction in blood flow to the sciatic nerve. The reduction in blood flow is particularly important and is likely to be relevant to many complications of diabetes including retinopathy, nephropathy macrovascular arterial disease of the heart and peripheral arteries, impotence and leg ulceration. It may also be relevant to many of the other conditions in which essential fatty acids are useful treatments, including the inflammatory disorders. Five groups of animals given streptozotocin (STZ) were tested. They were accepted into the study only if they developed unequivocal elevation of blood glucose after the STZ. Ten animals acted as normal controls. […] The animals were left for 6 weeks after the STZ to allow the nerve damage to develop and were then given treatment with nothing or with GLA or TA or both together for 2 weeks At the end of the two weeks, the animals were anaesthetised and the motor nerve conduction velocity measured in the perineal branch of the sciatic nerve. Sciatic nerve blood flow was also measured by microelectrode polarography hydrogen clearance

[2] = tested on: sciatic nerve of rats made diabetic by streptozotocin; assay: sciatic nerve blood flow by microelectrode polarography hydrogen clearance in streptozotocin diabetic rats; format: in vivo, rat; details: STZ diabetic Sprague Dawley rats; GLA approx. 20 mg/kg/daily in food, TA 20 mg/kg/day intraperitoneal; 2 weeks treatment starting 6 weeks after STZ
Description: as §1

[3] = tested on: nerve conduction; details: TA alone; Packer et al, pages 570-572; cited from earlier work
[4] = tested on: red cell membrane phospholipids; assay: fatty acid levels in red cell membrane phospholipids of rats fed GLA, EPA or DHA with or without anti-oxidant; format: in vivo, rat; details: two weeks; for effect on levels of the fatty acids or their immediate metabolites in red cell membrane phospholipids: fatty acid (GLA, EPA or DHA) 0.1% by weight in food plus 0.1% by weight anti-oxidant, preliminary experiments
Procedure: (§2) In an effort to explore the effect further, we have performed preliminary experiments on rats on the effects of the administration of either GLA, EPA or DHA with or without the so anti-oxidants vitamin E, vitamin C or TA. Each fatty acid was added to the food at 0.1% by weight for a period of two weeks. The diet also contained either no other added material (control) or 0.1% by weight of vitamin E, vitamin C or TA. After two weeks the animals were killed and the levels of the fatty acids or their immediate metabolites determined in plasma phospholipids and in red cell membrane phospholipids. […] We can therefore conclude that there is no effect of anti-oxidants per se on the metabolism of the GLA, EPA or DHA in this situation. Equally, there were no effects of TA on the plasma phospholipid fatty acid composition. In contrast, in each of the groups the concentrations of the relevant fatty acids in red cell phospholipids were increased by 10-20%.

[5] = tested on: plasma phospholipids; assay: fatty acid levels in plasma phospholipids of rats fed GLA, EPA or DHA with or without anti-oxidant; format: in vivo, rat; details: fatty acid (GLA, EPA or DHA) 0.1% by weight in food plus 0.1% by weight anti-oxidant, two weeks, preliminary experiments
Procedure: as §2

[6] = tested on: animals with diabetes; assay: vitamin E administered together with GLA in animals with diabetes; format: in vivo
Description: (§3) The results with EFA's and their synergistic effects with TA were completely unexpected and we decided to investigate them further. Vitamin E, like TA, is a lipophilic antioxidant and is one which is generally regarded as being physiologically more important than TA.

[7] = tested on: atopic eczema, breast pain, rheumatoid arthritis and cardiovascular disease; assay: clinical studies of GLA with co-administration of vitamin E; format: in vivo, human
Description: as §3

CCCCC/C=C\C/C=C\C/C=C\CCCCC(=O)O [GLA, Gamma-linolenic acid]
motor nerve conduction velocity [1]: little effect alone; also recorded: small improvements | total nerve blood flow [2]: little effect alone; also recorded: small improvements

O=C(O)CCCCC1CCSS1 (stereo not drawn) [TA, α-lipoic acid]
motor nerve conduction velocity [1]: little effect alone; also recorded: small improvements | effect on nerve conduction [3]: absence of effect | increase of concentrations of the relevant fatty acids in red cell phospholipids ([4]; GLA, EPA or DHA 0.1% by weight in food plus 0.1% by weight TA, versus control without TA): 10-20% | total nerve blood flow [2]: little effect alone; also recorded: small improvements | effect on levels of the fatty acids or their immediate metabolites in plasma phospholipids [5]: no effects

O=C1O[C@H]([C@@H](O)CO)C(O)=C1O [vitamin C]
effect on levels of the fatty acids or their immediate metabolites in red cell membrane phospholipids [4]: Neither vitamin E nor vitamin C had any effects | effect on levels of the fatty acids or their immediate metabolites in plasma phospholipids [5]: Neither vitamin E nor vitamin C had any effects

vitamin E
enhancement of the effect of GLA [6]: no enhancement at all | effect on levels of the fatty acids or their immediate metabolites in red cell membrane phospholipids [4]: Neither vitamin E nor vitamin C had any effects | enhancement of the effects of GLA in clinical studies [7]: not enhanced | effect on levels of the fatty acids or their immediate metabolites in plasma phospholipids [5]: Neither vitamin E nor vitamin C had any effects
